Here are results for 15 molecules from patent US10538555B2, “Macrocyclic inhibitors of the PD-1/PD-L1 and CD80(B7-1)/PD-L1 protein/protein interactions” (BRISTOL-MYERS SQUIBB COMPANY, priority 2014, dated 2020).

Structures are written as SMILES. *1 amine or outer side, *2 acyl side, *3 side chain or, on linkers, in order; H or OH if unused. Where a SMILES comes first, the peptide text is derived from it. Bridges are numbered along the chain shown (N, C = ends). [ ]: non-standard residue; d: D form. ξ: configuration not given here. Trp(1-CH2COOH) = N[C@@H](Cc1cn(CC(=O)O)c2ccccc12)C(=O)O; Trp(βS-Me) = C[C@@H](c1c[nH]c2ccccc12)[C@H](N)C(=O)O; Phe(3,4,5-F3) = N[C@@H](Cc1cc(F)c(F)c(F)c1)C(=O)O; NMePhe(4-F) = CN[C@@H](Cc1ccc(F)cc1)C(=O)O; Phe(4-F) = N[C@@H](Cc1ccc(F)cc1)C(=O)O; d(cisHyp) = O=C(O)[C@H]1C[C@@H](O)CN1; Hyp = O=C(O)[C@@H]1C[C@@H](O)CN1; NMeF = CN[C@@H](Cc1ccccc1)C(=O)O; X1 = O=C([C@H]1COCCN1[*:1])[*:2]; NMeNle = CCCC[C@H](NC)C(=O)O; Pip = O=C(O)[C@@H]1CCCCN1; dPip = O=C(O)[C@H]1CCCCN1; hSer = N[C@@H](CCO)C(=O)O; NMeA = CN[C@@H](C)C(=O)O; Orn = NCCC[C@H](N)C(=O)O; dNMeA = CN[C@H](C)C(=O)O; Dab = NCC[C@H](N)C(=O)O; Dap = NC[C@H](N)C(=O)O; ξC = NC(CS)C(=O)O; Sar = CNCC(=O)O

T1 sequence (Q9NZQ7 with tags, fused parts or gaps): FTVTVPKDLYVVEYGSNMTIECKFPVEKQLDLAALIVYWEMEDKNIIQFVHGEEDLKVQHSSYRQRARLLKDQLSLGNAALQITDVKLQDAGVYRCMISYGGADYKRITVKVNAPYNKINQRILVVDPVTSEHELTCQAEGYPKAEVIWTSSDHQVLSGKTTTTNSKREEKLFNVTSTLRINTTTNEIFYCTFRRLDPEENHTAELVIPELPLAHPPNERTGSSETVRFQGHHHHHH

The first experiment concerns the target T1, Human PD-L1/PD-1 (Homo sapiens, UniProt Q9NZQ7).
T1 construct: TVMV protease cleavage site (C); made in house; host or cells: HEK293T cells
The experiment in a line: HTRF Human PD-L1/PD-1 binding assay (PD-1-Ig/PD-L1-His). As to conditions: PD-L1-His 10 nM, PD-1-Ig 20 nM; class symbol; read-out: HTRF Human PD-L1/PD-1 Binding Assay IC50 Range. Put shortly:
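Soluble HEK293T-expressed proteins: hPD-L1-His 10 nM, hPD-1-Ig 20 nM final. Cpd + PD-L1 15 min, + PD-1 15 min, + Eu anti-Ig 1 nM/APC anti-His 20 nM 30 min. Buffer dPBS, 0.1% BSA, 0.05% Tween-20. TR-FRET 665/620.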
In general terms: In TR-FRET formats the signal depends on donor and acceptor labels being close together.
On to `CCCC[C@H]1C(=O)N2CCC[C@@H]2C(=O)N[C@@H](CC(=O)O)C(=O)N[C@@H](C(C)C)C(=O)N(C)[C@@H](Cc2ccccc2)C(=O)N[C@@H](Cc2ccc(O)cc2)C(=O)N2CCC[C@@H]2C(=O)N[C@@H]([C@@H](C)c2c[nH]c3ccccc23)C(=O)N[C@@H](Cc2ccc(O)cc2)C(=O)N[C@@H](CC(C)C)C(=O)N[C@H](C(=O)NCC(N)=O)CSCC(=O)N[C@@H](Cc2ccccc2)C(=O)N(C)[C@@H](Cc2ccccc2)C(=O)N1C` [Example 10535] ({CH2CO}-F[NMeF][NMeNle][dP]DV[NMeF]Y[dP][Trp(βS-Me)]YLCG-NH2; thioether N-13), for which the IC50 was 1 to 9.9 nM.

With `CCCC[C@H]1C(=O)N(C)[C@@H](CCCC)C(=O)N[C@@H](CCC(=O)O)C(=O)N[C@H](C(=O)NCC(N)=O)CSCC(=O)N[C@@H](Cc2ccc(O)cc2)C(=O)N(C)[C@@H](C)C(=O)N[C@@H](CC(=O)O)C(=O)N2CCC[C@H]2C(=O)N[C@@H](CO)C(=O)N[C@@H](CCC(N)=O)C(=O)N2C[C@H](O)C[C@H]2C(=O)N[C@@H](Cc2c[nH]c3ccccc23)C(=O)N[C@@H](CCN)C(=O)N[C@@H](Cc2c[nH]c3ccccc23)C(=O)N1C` [Example 5221] ({CH2CO}-Y[NMeA]DPSQ[Hyp]W[Dab]W[NMeNle][NMeNle]ECG-NH2; thioether N-14), the IC50 is 1 to 9.9 nM.

In the case of `CCCC[C@H]1C(=O)N2CCC[C@@H]2C(=O)N[C@@H](CC(=O)O)C(=O)N[C@@H](C)C(=O)N(C)[C@@H](Cc2ccccc2)C(=O)N[C@@H](Cc2ccc(O)cc2)C(=O)N2CCC[C@@H]2C(=O)N[C@@H](Cc2c[nH]c3ccccc23)C(=O)N[C@@H](Cc2ccc(O)cc2)C(=O)N[C@@H](CC(C)C)C(=O)N[C@H](C(=O)NCC(N)=O)CSCC(=O)N[C@@H](Cc2ccccc2)C(=O)N(C)[C@@H](Cc2ccccc2)C(=O)N1C` [Example 10076] ({CH2CO}-F[NMeF][NMeNle][dP]DA[NMeF]Y[dP]WYLCG-NH2; thioether N-13), the IC50 was in the range of 10 to 99.9 nM.

In the case of `CCCC[C@H]1C(=O)N2C[C@H](O)C[C@@H]2C(=O)N[C@@H](CC(=O)O)C(=O)N[C@@H](C(C)C)C(=O)N(C)[C@@H](Cc2ccccc2)C(=O)N[C@@H](CCOC)C(=O)N2CCOC[C@@H]2C(=O)N[C@@H](Cc2c[nH]c3ccccc23)C(=O)N[C@@H](Cc2ccc(O)cc2)C(=O)N[C@@H](CC(C)C)C(=O)N[C@H](C(=O)NCC(N)=O)CSCC(=O)N[C@@H](Cc2cc(F)c(F)c(F)c2)C(=O)N(C)[C@@H](Cc2ccccc2)C(=O)N1C` [Example 10194] ({CH2CO}-[Phe(3,4,5-F3)][NMeF][NMeNle][d(cisHyp)]DV[NMeF][hSer](Me)[X1]WYLCG-NH2; thioether N-13), the IC50 lay in the range of 10 to 99.9 nM.

`CCCC[C@H]1C(=O)N(C)[C@@H](CCCC)C(=O)N[C@@H](CCCN)C(=O)NC(C(=O)NCC(N)=O)CSCC(=O)N[C@@H](Cc2ccc(O)cc2)C(=O)N(C)[C@@H](C)C(=O)N[C@@H](CC(N)=O)C(=O)N2CCC[C@H]2C(=O)N[C@@H](CC(N)=O)C(=O)N[C@@H](CC(C)C)C(=O)N2C[C@H](O)C[C@H]2C(=O)N[C@@H](Cc2c[nH]c3ccccc23)C(=O)N[C@@H](CO)C(=O)N[C@@H](Cc2c[nH]c3ccccc23)C(=O)N1C` (stereo partly drawn) [Example 9157] ({CH2CO}-Y[NMeA]NPNL[Hyp]WSW[NMeNle][NMeNle][Orn][ξC]G-NH2; thioether N-14): the IC50 was in the range of 1 to 9.9 nM.

For the molecule `CCCC[C@H]1C(=O)N2CCCC[C@@H]2C(=O)N[C@@H](CC(=O)O)C(=O)N[C@@H](C)C(=O)N(C)[C@@H](Cc2ccccc2)C(=O)N[C@@H](Cc2ccc(O)cc2)C(=O)N(C)CC(=O)N[C@@H](Cc2c[nH]c3ccccc23)C(=O)N[C@@H](Cc2ccc(O)cc2)C(=O)N[C@@H](CC(C)C)C(=O)N[C@H](C(=O)NCC(N)=O)CSCC(=O)N[C@@H](Cc2ccccc2)C(=O)N(C)[C@@H](Cc2ccccc2)C(=O)N1C` [Example 10084] ({CH2CO}-F[NMeF][NMeNle][dPip]DA[NMeF]Y[Sar]WYLCG-NH2; thioether N-13), the IC50 was 100 to 990 nM.

On to `CCCC[C@H]1C(=O)N2CCC[C@@H]2C(=O)N[C@@H](CC(=O)O)C(=O)N[C@@H](C(C)C)C(=O)N(C)[C@@H](Cc2ccc(F)cc2)C(=O)N[C@@H](CCN)C(=O)N2CCC[C@@H]2C(=O)N[C@@H](Cc2c[nH]c3ccccc23)C(=O)N[C@@H](Cc2ccc(O)cc2)C(=O)N[C@@H](CC(C)C)C(=O)N[C@H](C(=O)NCC(N)=O)CSCC(=O)N[C@@H](Cc2ccc(F)cc2)C(=O)N(C)[C@@H](Cc2ccccc2)C(=O)N1C` [Example 10109] ({CH2CO}-[Phe(4-F)][NMeF][NMeNle][dP]DV[NMePhe(4-F)][Dab][dP]WYLCG-NH2; thioether N-13), for which the IC50 lay in the range of 10 to 99.9 nM.

In the case of `CC(C)[C@@H]1NC(=O)[C@H](CC(N)=O)NC(=O)[C@@H](C)N(C)C(=O)[C@H](C)N(C)C(=O)[C@H](Cc2ccccc2)N(C)C(=O)[C@H](Cc2cc(F)c(F)c(F)c2)NC(=O)CSC[C@@H](C(=O)NCC(N)=O)NC(=O)[C@H](CCCN)NC(=O)[C@H](Cc2ccc(O)cc2)NC(=O)[C@H](Cc2c[nH]c3ccccc23)NC(=O)[C@@H](C)N(C)C(=O)[C@H](Cc2ccc(O)cc2)NC(=O)[C@H](Cc2ccccc2)N(C)C1=O` [Example 9195] ({CH2CO}-[Phe(3,4,5-F3)][NMeF][NMeA][dNMeA]NV[NMeF]Y[dNMeA]WY[Orn]CG-NH2; thioether N-13), the IC50 is 1 to 9.9 nM.

On to `CCCC[C@H]1C(=O)N(C)[C@@H](CCCC)C(=O)N[C@@H](CCC(=O)O)C(=O)N[C@H](C(=O)NCC(N)=O)CSCC(=O)N[C@@H](Cc2ccc(O)cc2)C(=O)N2CCCC[C@H]2C(=O)N[C@@H](CC(=O)O)C(=O)N2CCC[C@H]2C(=O)N[C@@H](Cc2cnc[nH]2)C(=O)N[C@@H](CCC(N)=O)C(=O)N2C[C@H](O)C[C@H]2C(=O)N[C@@H](Cc2c[nH]c3ccccc23)C(=O)N[C@@H](CO)C(=O)N[C@@H](Cc2c[nH]c3ccccc23)C(=O)N1C` [Example 1260] ({CH2CO}-Y[Pip]DPHQ[Hyp]WSW[NMeNle][NMeNle]ECG-NH2; thioether N-14), for which the IC50 is 1 to 9.9 nM.

Turning to `CCCC[C@H]1C(=O)N(C)[C@@H](CCCC)C(=O)N[C@@H](CCC(=O)O)C(=O)N[C@H](C(=O)NCC(N)=O)CSCC(=O)N[C@@H](Cc2ccc(OC)cc2)C(=O)N(C)[C@@H](C)C(=O)N[C@@H](CC(N)=O)C(=O)N2CCC[C@H]2C(=O)N[C@@H](CN)C(=O)N[C@@H](CCCCN)C(=O)N2C[C@H](O)C[C@H]2C(=O)N[C@@H](Cc2c[nH]c3ccccc23)C(=O)N[C@@H](CCN)C(=O)N[C@@H](Cc2cn(CC(=O)O)c3ccccc23)C(=O)N1C` [Example 7146] ({CH2CO}-Y(Me)[NMeA]NP[Dap]K[Hyp]W[Dab][Trp(1-CH2COOH)][NMeNle][NMeNle]ECG-NH2; thioether N-14), the IC50 fell in the range of 10 to 99.9 nM.

For `CCCC[C@H]1C(=O)N(C)[C@@H](CCCC)C(=O)N[C@@H](CCC(=O)O)C(=O)N[C@H](C(=O)NCC(N)=O)CSCC(=O)N[C@@H](Cc2ccc(O)cc2)C(=O)N(C)[C@@H](C)C(=O)N[C@@H](CC(N)=O)C(=O)N2CCC[C@H]2C(=O)N[C@@H](Cc2c[nH]cn2)C(=O)N[C@@H](CCC(=O)O)C(=O)N2C[C@H](O)C[C@H]2C(=O)N[C@@H](Cc2c[nH]c3ccccc23)C(=O)N[C@@H](CCN)C(=O)N[C@@H](Cc2c[nH]c3ccccc23)C(=O)N1C` [Example 5190] ({CH2CO}-Y[NMeA]NPHE[Hyp]W[Dab]W[NMeNle][NMeNle]ECG-NH2; thioether N-14), the IC50 was 1 to 9.9 nM.

Turning to `CCCC[C@H]1C(=O)N2CCC[C@@H]2C(=O)N[C@@H](CC(=O)O)C(=O)N[C@@H](C(C)C)C(=O)N(C)[C@@H](Cc2ccccc2)C(=O)N[C@@H](CCCN)C(=O)N2CCC[C@@H]2C(=O)N[C@@H](Cc2c[nH]c3ccccc23)C(=O)N[C@@H](Cc2ccc(O)cc2)C(=O)N[C@@H](CC(C)C)C(=O)N[C@H](C(=O)NCC(N)=O)CSCC(=O)N[C@@H](Cc2cc(F)c(F)c(F)c2)C(=O)N(C)[C@@H](Cc2ccccc2)C(=O)N1C` [Example 10104] ({CH2CO}-[Phe(3,4,5-F3)][NMeF][NMeNle][dP]DV[NMeF][Orn][dP]WYLCG-NH2; thioether N-13), the IC50 was 1 to 9.9 nM.

As to `CCCC[C@H]1C(=O)N(C)[C@@H](CCCC)C(=O)N[C@@H](CCC(=O)O)C(=O)N[C@H](C(=O)NCC(N)=O)CSCC(=O)N[C@@H](Cc2ccc(O)cc2)C(=O)N(C)[C@@H](C)C(=O)N[C@@H](CC(N)=O)C(=O)N2CCC[C@H]2C(=O)N[C@@H](CN)C(=O)N[C@@H](CC(C)C)C(=O)N2C[C@H](O)C[C@H]2C(=O)N[C@@H](Cc2c[nH]c3ccccc23)C(=O)N[C@@H](CO)C(=O)N[C@@H](Cc2c[nH]c3ccccc23)C(=O)N1C` [Example 5165] ({CH2CO}-Y[NMeA]NP[Dap]L[Hyp]WSW[NMeNle][NMeNle]ECG-NH2; thioether N-14), the IC50 was in the range of 1 to 9.9 nM.

`CCCC[C@H]1C(=O)N(C)[C@@H](CCCC)C(=O)N[C@@H](CCC(=O)O)C(=O)N[C@H](C(=O)NCC(N)=O)CSCC(=O)N[C@@H](Cc2ccc(OC)cc2)C(=O)N(C)[C@@H](C)C(=O)N[C@@H](CCN)C(=O)N2CCC[C@H]2C(=O)N[C@@H](Cc2cnc[nH]2)C(=O)N[C@@H](CCC(=O)O)C(=O)N2C[C@H](O)C[C@H]2C(=O)N[C@@H](Cc2c[nH]c3ccccc23)C(=O)N[C@@H](CCN)C(=O)N[C@@H](Cc2c[nH]c3ccccc23)C(=O)N1C` [Example 7111] ({CH2CO}-Y(Me)[NMeA][Dab]PHE[Hyp]W[Dab]W[NMeNle][NMeNle]ECG-NH2; thioether N-14): the IC50 was 1 to 9.9 nM.

Staying with this experiment, now noted: PD-L1-His 10 nM, PD-1-Ig 20 nM; read-out: HTRF Human PD-L1/PD-1 Binding Assay IC50.
For the molecule `CCCC[C@H]1C(=O)N(C)[C@@H](CCCC)C(=O)N[C@@H](CN)C(=O)N[C@H](C(=O)NCC(N)=O)CSCC(=O)N[C@@H](Cc2ccc(O)cc2)C(=O)N(C)[C@@H](C)C(=O)N[C@@H](CC(N)=O)C(=O)N2CCC[C@H]2C(=O)N[C@@H](Cc2c[nH]cn2)C(=O)N[C@@H](CCC(N)=O)C(=O)N2C[C@H](O)C[C@H]2C(=O)N[C@@H](Cc2c[nH]c3ccccc23)C(=O)N[C@@H](CCN)C(=O)N[C@@H](Cc2cn(CC(=O)O)c3ccccc23)C(=O)N1C` [Example 5222] ({CH2CO}-Y[NMeA]NPHQ[Hyp]W[Dab][Trp(1-CH2COOH)][NMeNle][NMeNle][Dap]CG-NH2; thioether N-14), the IC50 is 1000 nM.
